In brackets after ≈: the same amount, converted by molar mass. Read-outs that look alike come from different tables or passages of the source.
Columns and labels:
[1] = test system: Pseudomonas aeruginosa PA14; assay: Lungs of immunosuppressed mice infected with Pseudomonas aeruginosa (2), lung bacterial load; assay type: in vivo; settings: 24 hours after infection, day, ip at 2 h, 4 h, 6 h, 8 h
Experimental: Pseudomonas aeruginosa PA14. 60 mice were intraperitoneally injected with 150 mg/kg cyclophosphamide on day 1 and day 4 to give immunosuppressed mice. […] [table] The mice were injected with 50 μL of bacterial solution (2×10^3 CFU) through the airway. 2 hours after the infection, 4 mice in the model group was sacrificed by removing cervical vertebra. Two hours after infection, the drugs were administered by groups, and the mice were administered intraperitoneally once at 2 hours, 4 hours, 6 hours, and 8 hours, a total of 4 times. Mice of each group were sacrificed by removing cervical vertebra 24 hours after infection, lung and kidney tissues were taken aseptically and put into a sterilized tissue homogenate tube, weighed, and an appropriate amount of normal saline (NS) was added, the mixture was homogenized by a homogenizer for 1 min, the lung tissues of the model group were diluted 10^4, 10^5, 10^6 times, the lung tissues of each administration group were diluted 10, 100 times, the kidney tissues of the model group were diluted 10^2, 10^3, 10^4 times, and the lung tissues of each administration group were diluted 10 times, the obtained mixtures were coated on TSA plates using spiral coater, then incubated at 37° C. overnight, and the CFU was counted with a colony counter. Graphpad Prism mapping software was used to make scatter plots of lung tissue CFU. SPSS19.0 software was used to count CFU and average body weight, and analysis of variance was used to analyze differences between groups.

[2] = test system: Acinetobacter baumannii C270; assay: MIC on clinically isolated bacteria; assay type: cell-based
Text: (§1) Twenty-five strains of clinically isolated Acinetobacter baumannii and twenty-seven strains of Pseudomonas aeruginosa were respectively selected and used to determine the minimum inhibitory concentration (MIC) of the compounds by micro-liquid dilution method according to the Institute of Clinical and Laboratory Standard (CLSI) requirements.

[3] = test system: Acinetobacter baumannii C361; assay: MIC on clinically isolated bacteria; assay type: cell-based
Text: as §1

[4] = test system: Pseudomonas aeruginosa W42; assay: MIC on clinically isolated bacteria; assay type: cell-based
Text: as §1

[5] = test system: Acinetobacter baumannii C403; assay: MIC on clinically isolated bacteria; assay type: cell-based
Text: as §1

[6] = test system: Pseudomonas aeruginosa W29; assay: MIC on clinically isolated bacteria; assay type: cell-based
Text: as §1

[7] = test system: Acinetobacter baumannii C394; assay: MIC on clinically isolated bacteria; assay type: cell-based
Text: as §1

[8] = test system: Pseudomonas aeruginosa W24; assay: MIC on clinically isolated bacteria; assay type: cell-based
Text: as §1

[9] = test system: Pseudomonas aeruginosa C745; assay: MIC on clinically isolated bacteria; assay type: cell-based
Text: as §1

[10] = test system: Pseudomonas aeruginosa W35; assay: MIC on clinically isolated bacteria; assay type: cell-based
Text: as §1

[11] = test system: Acinetobacter baumannii C281; assay: MIC on clinically isolated bacteria; assay type: cell-based
Text: as §1

[12] = test system: Acinetobacter baumannii C333; assay: MIC on clinically isolated bacteria; assay type: cell-based
Text: as §1

[13] = test system: P. aeruginosa ATCC 35151; assay: MIC by micro-liquid dilution method (CLSI); assay type: cell-based; settings: Pseudomonas aeruginosa, ATCC35151
[14] = test system: Acinetobacter baumannii ATCC-BAA-1793; assay: MIC on Acinetobacter baumannii strains; assay type: cell-based; settings: ATCCBAA1793
Text: (§2) Twelve strains of Acinetobacter baumannii, A. baumannii ATCC 17978 (ATCC-BAA-1605, ATCC-BAA-1789, ATCC-BAA-1790, ATCC-BAA-1791, ATCC-BAA-1792, ATCC-BAA-1793, ATCC-BAA-1794, ATCC-BAA-1795, ATCC-BAA-1799, ATCC-BAA-1800, ATCC 19606, ATCC 17978) were used to determine the minimum inhibitory concentration (MIC) of the compounds by micro-liquid dilution method according to the Institute of Clinical and Laboratory Standard (CLSI) requirements.

[15] = test system: Acinetobacter baumannii ATCC-BAA-1794; assay: MIC on Acinetobacter baumannii strains; assay type: cell-based; settings: ATCCBAA1794
Text: as §2

[16] = test system: Acinetobacter baumannii ATCC-BAA-1605; assay: MIC on Acinetobacter baumannii strains; assay type: cell-based; settings: ATCCBAA1605, ATCC-BAA-1605, read-out: MIC
Text: as §2

[17] = test system: Acinetobacter baumannii ATCC-BAA-1791; assay: MIC on Acinetobacter baumannii strains; assay type: cell-based; settings: ATCCBAA1791
Text: as §2

[18] = test system: Acinetobacter baumannii ATCC 17978; assay: MIC on Acinetobacter baumannii strains; assay type: cell-based; settings: ATCC17978
Text: as §2

[19] = test system: Acinetobacter baumannii ATCC 19606; assay: MIC on Acinetobacter baumannii strains; assay type: cell-based; settings: ATCC19606
Text: as §2

[20] = test system: Acinetobacter baumannii ATCC-BAA-1799; assay: MIC on Acinetobacter baumannii strains; assay type: cell-based; settings: ATCCBAA1799
Text: as §2

[21] = test system: Acinetobacter baumannii ATCC-BAA-1790; assay: MIC on Acinetobacter baumannii strains; assay type: cell-based; settings: ATCCBAA1790
Text: as §2

[22] = test system: Acinetobacter baumannii ATCC-BAA-1789; assay: MIC on Acinetobacter baumannii strains; assay type: cell-based; settings: ATCCBAA1789
Text: as §2

[23] = test system: Acinetobacter baumannii ATCC-BAA-1795; assay: MIC on Acinetobacter baumannii strains; assay type: cell-based; settings: ATCCBAA1795
Text: as §2

[24] = test system: Acinetobacter baumannii ATCC-BAA-1792; assay: MIC on Acinetobacter baumannii strains; assay type: cell-based; settings: ATCCBAA1792
Text: as §2

[25] = test system: Acinetobacter baumannii ATCC-BAA-1800; assay: MIC on Acinetobacter baumannii strains; assay type: cell-based; settings: ATCCBAA1800
Text: as §2

[26] = Acinetobacter baumannii C270, read-out: Minimum Inhibitory Concentration (MIC)
[27] = Acinetobacter baumannii C361, read-out: Minimum Inhibitory Concentration (MIC)
[28] = Acinetobacter baumannii C403, read-out: Minimum Inhibitory Concentration (MIC)
[29] = Acinetobacter baumannii C394, read-out: Minimum Inhibitory Concentration (MIC)
[30] = Acinetobacter baumannii C281, read-out: Minimum Inhibitory Concentration (MIC)
[31] = Acinetobacter baumannii C333, read-out: Minimum Inhibitory Concentration (MIC)

Compound: CC1(C)[C@H](NC(=O)/C(=N\O[C@@H](COc2ccc3c(c2)CN(C(=N)NCCN)C3)C(=O)O)c2csc(N)n2)C(=O)N1OS(=O)(=O)O [Compound 44]
- LOG10-of bacterial load ([1]; total dosage 20 mg/kg): 6.80 ± 0.94
- LOG10-of bacterial load ([1]; total dosage 60 mg/kg): 2.40 ± 1.99
- MIC [2, 26]: 1 µg/mL (≈ 1.49 µM)
- MIC [3, 27]: 1 µg/mL (≈ 1.49 µM)
- MIC ([4]; read-out: MIC): 0.5 µg/mL (≈ 0.747 µM)
- MIC [5, 28]: 2 µg/mL (≈ 2.99 µM)
- MIC ([6]; read-out: MIC): 2 µg/mL (≈ 2.99 µM)
- MIC [7, 29]: 1 µg/mL (≈ 1.49 µM)
- MIC ([8]; read-out: MIC): 2 µg/mL (≈ 2.99 µM)
- MIC ([9]; read-out: MIC): 4 µg/mL (≈ 5.97 µM)
- MIC ([10]; read-out: MIC): 0.25 µg/mL (≈ 0.373 µM)
- MIC [11, 30]: 1 µg/mL (≈ 1.49 µM)
- MIC [12, 31]: 2 µg/mL (≈ 2.99 µM)

Compound: CC1(C)[C@H](NC(=O)/C(=N\O[C@@H](COc2ccc3c(c2)CN(C(=N)N(CCN)CCN)C3)C(=O)O)c2csc(N)n2)C(=O)N1OS(=O)(=O)O [Compound 45]
- MIC [2, 26]: 16 µg/mL (≈ 22.4 µM)
- MIC [3, 27]: 8 µg/mL (≈ 11.2 µM)
- MIC ([4]; read-out: MIC): 4 µg/mL (≈ 5.61 µM)
- MIC [5, 28]: 16 µg/mL (≈ 22.4 µM)
- MIC ([6]; read-out: MIC): 16 µg/mL (≈ 22.4 µM)
- MIC [7, 29]: 16 µg/mL (≈ 22.4 µM)
- MIC ([8]; read-out: MIC): 16 µg/mL (≈ 22.4 µM)
- MIC ([9]; read-out: MIC): > 16 µg/mL
- MIC ([10]; read-out: MIC): 2 µg/mL (≈ 2.81 µM)
- MIC [11, 30]: 16 µg/mL (≈ 22.4 µM)
- MIC [12, 31]: 16 µg/mL (≈ 22.4 µM)

Compound: CC1(C)[C@H](NC(=O)/C(=N\O[C@@H](COc2ccc3c(c2)CN(/C(=N\[C@@H]2CCCNC2)N[C@@H]2CCCNC2)C3)C(=O)O)c2csc(N)n2)C(=O)N1OS(=O)(=O)O [Compound 46]
- LOG10-of bacterial load ([1]; total dosage 20 mg/kg): 3.13 ± 2.45
- LOG10-of bacterial load ([1]; total dosage 60 mg/kg): 0.34 ± 0.85
- MIC [2, 26]: 4 µg/mL (≈ 5.04 µM)
- MIC [3, 27]: 4 µg/mL (≈ 5.04 µM)
- MIC ([4]; read-out: MIC): 0.5 µg/mL (≈ 0.631 µM)
- MIC [5, 28]: 4 µg/mL (≈ 5.04 µM)
- MIC ([6]; read-out: MIC): 1 µg/mL (≈ 1.26 µM)
- MIC [7, 29]: 4 µg/mL (≈ 5.04 µM)
- MIC ([8]; read-out: MIC): 1 µg/mL (≈ 1.26 µM)
- MIC ([9]; read-out: MIC): 4 µg/mL (≈ 5.04 µM)
- MIC ([10]; read-out: MIC): 0.25 µg/mL (≈ 0.315 µM)
- MIC [11, 30]: 4 µg/mL (≈ 5.04 µM)
- MIC [12, 31]: 4 µg/mL (≈ 5.04 µM)

Compound: C[C@@H](O)[C@H]1C(=O)N2C(C(=O)O)=C(S[C@@H]3CN[C@H](C(=O)N(C)C)C3)[C@H](C)[C@H]12 [Meropenem, reference compound]
- MIC [13]: ≤ 0.125 µg/mL
- MIC [2, 26]: 64 µg/mL (≈ 167 µM)
- MIC [3, 27]: 64 µg/mL (≈ 167 µM)
- MIC ([4]; read-out: MIC): 1 µg/mL (≈ 2.61 µM)
- MIC [5, 28]: 64 µg/mL (≈ 167 µM)
- MIC ([6]; read-out: MIC): 4 µg/mL (≈ 10.4 µM)
- MIC [7, 29]: 64 µg/mL (≈ 167 µM)
- MIC ([8]; read-out: MIC): 16 µg/mL (≈ 41.7 µM)
- MIC ([9]; read-out: MIC): 32 µg/mL (≈ 83.4 µM)
- MIC ([10]; read-out: MIC): 16 µg/mL (≈ 41.7 µM)
- MIC [11, 30]: 64 µg/mL (≈ 167 µM)
- MIC [12, 31]: 64 µg/mL (≈ 167 µM)
- MIC [14]: > 128 µg/mL
- MIC [15]: > 128 µg/mL
- MIC [16]: 64 µg/mL (≈ 167 µM)
- MIC [17]: 64 µg/mL (≈ 167 µM)
- MIC [18]: 0.5 µg/mL (≈ 1.3 µM)
- MIC [19]: 2 µg/mL (≈ 5.22 µM)
- MIC [20]: 128 µg/mL (≈ 334 µM)
- MIC [21]: 128 µg/mL (≈ 334 µM)
- MIC [22]: 64 µg/mL (≈ 167 µM)
- MIC [23]: 4 µg/mL (≈ 10.4 µM)
- MIC [24]: 128 µg/mL (≈ 334 µM)
- MIC [25]: > 128 µg/mL

Compound: CN(C)c1cc(NC(=O)CNC(C)(C)C)c(O)c2c1C[C@H]1C[C@H]3[C@H](N(C)C)C(O)=C(C(N)=O)C(=O)[C@@]3(O)C(O)=C1C2=O [Tigecycline, reference compound]
- MIC ([2]; Acinetobacter baumannii, C270, read-out: Minimum Inhibitory Concentration (MIC)): 1 µg/mL (≈ 1.71 µM)
- MIC ([3]; Acinetobacter baumannii, C361, read-out: Minimum Inhibitory Concentration (MIC)): 1 µg/mL (≈ 1.71 µM)
- MIC [4]: 8 µg/mL (≈ 13.7 µM)
- MIC ([5]; Acinetobacter baumannii, C403, read-out: Minimum Inhibitory Concentration (MIC)): 1 µg/mL (≈ 1.71 µM)
- MIC [6]: 16 µg/mL (≈ 27.3 µM)
- MIC ([7]; Acinetobacter baumannii, C394, read-out: Minimum Inhibitory Concentration (MIC)): 1 µg/mL (≈ 1.71 µM)
- MIC [8]: 16 µg/mL (≈ 27.3 µM)
- MIC [9]: > 16 µg/mL
- MIC [10]: 8 µg/mL (≈ 13.7 µM)
- MIC ([11]; Acinetobacter baumannii, C281, read-out: Minimum Inhibitory Concentration (MIC)): 1 µg/mL (≈ 1.71 µM)
- MIC ([12]; Acinetobacter baumannii, C333, read-out: Minimum Inhibitory Concentration (MIC)): 1 µg/mL (≈ 1.71 µM)

Source: patent publication US11459323B2, “Monocyclic β-lactam compound for treating bacterial infection” (MEDSHINE DISCOVERY INC., priority 2018, dated 2022)
